# Source: patent US11034702B2, “Thienoisoquinolines and their derivatives for the treatment of cancer” (VALORBEC, SOCIÉTÉ EN COMMANDITE, priority 2016, dated 2021)
# Tests used:
# [1] = system: HeLa spheroids; test: HeLa multicellular tumour spheroids; type: cell-based, human
# Protocol: FIG. 5A) is a series of images of HeLa multicellular tumor spheroids (spheroids) treated with control (500 nM C87), empty nanoparticles, 500 nM C75 and 250 nM C75-loaded nanoparticles over 3 days. […] The scale bar for all images is 100 μm. FIG. 5B) is a series images of HeLa spheroids after three days of treatment with control (500 nM C87) or 500 nM C75. The spheroids were stained for fluorescein diacetate (to detect live cells) and propidium iodide (to detect dead cells). […] The scale bar for all images is 100 μm. FIG. 5C) is a series of images of HCT116 spheroids treated with control (1 μM C87), 500 nM C75, 1 μM C75 and 500 nM C75-loaded nanoparticles over 5 days. […] The borders of the spheroids treated with 1 μM C75 or with 500 nM C75-loaded nanoparticles became highly irregular, indicative of loss of spheroid integrity. FIG. 5D) is a series images of HCT116 spheroids after six days of treatment with control (1 μM C87) or 1 μM C75. The spheroids were stained for fluorescein diacetate (live cells) and propidium iodide (dead cells). […] FIG. 5E) is a line graph showing the growth in surface area (%) of HCT116 spheroids treated with control (1 μM C87), 500 nM C75 and 1 μM C75 after six days. FIG. 5F) is a series of images of A549 spheroids treated with control (750 nM C87), 500 nM C75, 1 μM C75 and 500 nM C75-loaded nanoparticles over 5 days. […] The scale bar for all images is 100 μm. […]
# [2] = system: HFF1 cells; test: Percentage of mitotic HFF1 cells with paclitaxel +/- C75; type: cell-based
# From the text: FIG. 3A) is a line graph showing the percentage of mitotic HeLa or HFF1 cells treated with a range of paclitaxel (Taxol™; tubulin-targeting drug) concentrations+/−C75 as indicated. The bars indicate standard deviation. FIG. 3B) is a series of bar graphs showing the proportion of HCT116 cells that have monopolar spindles, bipolar spindles with aligned chromosomes, bipolar spindles with misaligned chromosomes and multipolar/fragmented spindles after treatments as shown. Treatments include DMSO (control), varying concentrations of paclitaxel and/or varying concentrations of C75 after 7 hours. While treatment of HCT116 cells with 2.5 nM paclitaxel caused a threshold of mitotic spindle phenotypes, adding increasing concentrations of C75 in combination with 2.5 nM paclitaxel caused the phenotypes to progressively worsen. FIG. 3C) is bar graph showing the average distance between centrosome fragments in HCT116 cells after treatments as shown. While centrosome fragments moved closer together with increased concentrations of paclitaxel, they moved further apart with increased concentrations of C75. […] FIG. 3E) is a line graph showing the percentage of mitotic HeLa or HFF1 cells treated with a range of nocodazole concentrations+/−C75 as indicated. The bars indicate standard deviation. […]
# [3] = system: MCF-7 (mammary gland carcinoma) cells; test: IC50 (viability) in MCF-7 cells; type: cell-based; conditions: Homo sapiens, MCF7
# Protocol: (§1) 19 variants with different structural modifications have been made. […] In particular, it is shown that C75 causes death in multiple cancer cells with IC50 values in the 100 nM range, including breast cancers (MCF7, BT549), lung cancer (A549), colorectal cancer (HCT116) in addition to HeLa cells (cervical cancer).
# [4] = system: HFF1 (fibroblast) non-cancer cells; test: IC50 (viability) in HFF1 non-cancer cells; type: cell-based; conditions: Homo sapiens; HFF-1 non-cancer cells
# Protocol: as §1
smiles,measurement,setting,value
COc1ccc(S(=O)(=O)N2Cc3ccccc3-c3sc(Br)cc32)cc1 [Compound C75],effect on HeLa spheroids,"[1]; 500 nM C75 or 250 nM C75-loaded nanoparticles, over 3 days",disrupt HeLa spheroids
same,live/dead staining of spheroids (fluorescein diacetate / propidium iodide),"[1]; HeLa spheroids, 500 nM, three days",majority of HeLa cells were dead
same,effect of C75 on non-cancerous cells treated with paclitaxel,[2],protective effect
same,IC50,[3],101 nM
same,IC50,[4],467 nM
